Five molecules from patent US7713958B2, “Compounds and compositions as protein kinase inhibitors” (IRM LLC, priority 2003, dated 2010) can be followed below.

What all share (format): biochemical
In one assay the target is c-src (Homo sapiens, UniProt P12931). The assay is described as follows: Kinase inhibition at 10 μM, c-src. Conditions: 10 μM of Compound; read-out: Percentage Inhibition of c-src.
The next assay has as its target FGFR-1 (Homo sapiens, UniProt P11362). As to the kind of experiment: Kinase inhibition at 10 μM, FGFR-1. Conditions: 10 μM of Compound; read-out: Percentage Inhibition of FGFR-1.
The next assay concerns the target KDR (Homo sapiens, UniProt P35968). As to the kind of experiment: Kinase inhibition at 10 μM, KDR. Conditions: 10 μM of Compound; read-out: Percentage Inhibition of KDR.
A further assay addresses c-Met (Homo sapiens, UniProt P08581). The assay is described as follows: Kinase inhibition at 10 μM, c-Met. Conditions: 10 μM of Compound; read-out: Percentage Inhibition of c-Met.
The next assay has as its target CDK1 (Homo sapiens, UniProt P06493). The assay is described as follows: Kinase inhibition at 10 μM, CDK1. Conditions: 10 μM of Compound; read-out: Percentage Inhibition of CDK1.
In the next assay the target is c-Kit (Homo sapiens, UniProt P10721). The assay is described as follows: Kinase inhibition at 10 μM, c-Kit. Conditions: 10 μM of Compound; read-out: Percentage Inhibition of c-Kit.
The target in a further assay is Tek (Homo sapiens, UniProt Q02763). The assay is described as follows: Kinase inhibition at 10 μM, Tek. Conditions: 10 μM of Compound; read-out: Percentage Inhibition of Tek.
Tek, sequence (Q02763 23-1124, species assumed): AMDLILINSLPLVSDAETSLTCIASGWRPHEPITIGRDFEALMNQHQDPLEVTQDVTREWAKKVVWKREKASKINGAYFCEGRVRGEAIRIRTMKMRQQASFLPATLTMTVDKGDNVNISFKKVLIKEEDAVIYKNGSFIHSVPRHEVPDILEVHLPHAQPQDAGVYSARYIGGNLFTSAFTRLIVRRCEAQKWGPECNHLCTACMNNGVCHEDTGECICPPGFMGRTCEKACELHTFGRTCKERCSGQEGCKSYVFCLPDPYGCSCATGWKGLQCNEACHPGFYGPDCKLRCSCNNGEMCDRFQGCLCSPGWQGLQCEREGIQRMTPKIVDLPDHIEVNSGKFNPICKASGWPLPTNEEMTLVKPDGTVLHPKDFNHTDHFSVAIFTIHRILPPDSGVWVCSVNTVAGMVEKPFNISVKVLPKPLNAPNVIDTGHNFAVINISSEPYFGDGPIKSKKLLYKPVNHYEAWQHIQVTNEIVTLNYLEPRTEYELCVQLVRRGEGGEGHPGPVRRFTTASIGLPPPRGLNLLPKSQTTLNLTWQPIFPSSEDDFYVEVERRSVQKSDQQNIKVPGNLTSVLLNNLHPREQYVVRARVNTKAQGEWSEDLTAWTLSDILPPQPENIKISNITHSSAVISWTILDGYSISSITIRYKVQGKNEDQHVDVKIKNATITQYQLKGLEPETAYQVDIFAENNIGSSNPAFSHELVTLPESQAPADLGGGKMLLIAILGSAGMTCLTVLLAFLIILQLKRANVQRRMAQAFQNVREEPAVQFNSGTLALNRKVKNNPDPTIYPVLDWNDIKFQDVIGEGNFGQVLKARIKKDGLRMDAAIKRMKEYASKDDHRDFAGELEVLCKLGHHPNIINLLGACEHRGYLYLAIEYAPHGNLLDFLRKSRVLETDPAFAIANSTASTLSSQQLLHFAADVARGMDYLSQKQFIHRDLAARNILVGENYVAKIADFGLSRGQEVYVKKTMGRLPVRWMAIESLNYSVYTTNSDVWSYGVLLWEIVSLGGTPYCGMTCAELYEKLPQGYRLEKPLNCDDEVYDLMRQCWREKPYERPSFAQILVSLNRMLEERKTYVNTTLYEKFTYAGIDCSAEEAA
The target in another assay is Flt-1 (Homo sapiens, UniProt P17948). As to the kind of experiment: Kinase inhibition at 10 μM, Flt-1. Conditions: 10 μM of Compound; read-out: Percentage Inhibition of Flt-1.
Flt-1, sequence (P17948 27-1338, species assumed): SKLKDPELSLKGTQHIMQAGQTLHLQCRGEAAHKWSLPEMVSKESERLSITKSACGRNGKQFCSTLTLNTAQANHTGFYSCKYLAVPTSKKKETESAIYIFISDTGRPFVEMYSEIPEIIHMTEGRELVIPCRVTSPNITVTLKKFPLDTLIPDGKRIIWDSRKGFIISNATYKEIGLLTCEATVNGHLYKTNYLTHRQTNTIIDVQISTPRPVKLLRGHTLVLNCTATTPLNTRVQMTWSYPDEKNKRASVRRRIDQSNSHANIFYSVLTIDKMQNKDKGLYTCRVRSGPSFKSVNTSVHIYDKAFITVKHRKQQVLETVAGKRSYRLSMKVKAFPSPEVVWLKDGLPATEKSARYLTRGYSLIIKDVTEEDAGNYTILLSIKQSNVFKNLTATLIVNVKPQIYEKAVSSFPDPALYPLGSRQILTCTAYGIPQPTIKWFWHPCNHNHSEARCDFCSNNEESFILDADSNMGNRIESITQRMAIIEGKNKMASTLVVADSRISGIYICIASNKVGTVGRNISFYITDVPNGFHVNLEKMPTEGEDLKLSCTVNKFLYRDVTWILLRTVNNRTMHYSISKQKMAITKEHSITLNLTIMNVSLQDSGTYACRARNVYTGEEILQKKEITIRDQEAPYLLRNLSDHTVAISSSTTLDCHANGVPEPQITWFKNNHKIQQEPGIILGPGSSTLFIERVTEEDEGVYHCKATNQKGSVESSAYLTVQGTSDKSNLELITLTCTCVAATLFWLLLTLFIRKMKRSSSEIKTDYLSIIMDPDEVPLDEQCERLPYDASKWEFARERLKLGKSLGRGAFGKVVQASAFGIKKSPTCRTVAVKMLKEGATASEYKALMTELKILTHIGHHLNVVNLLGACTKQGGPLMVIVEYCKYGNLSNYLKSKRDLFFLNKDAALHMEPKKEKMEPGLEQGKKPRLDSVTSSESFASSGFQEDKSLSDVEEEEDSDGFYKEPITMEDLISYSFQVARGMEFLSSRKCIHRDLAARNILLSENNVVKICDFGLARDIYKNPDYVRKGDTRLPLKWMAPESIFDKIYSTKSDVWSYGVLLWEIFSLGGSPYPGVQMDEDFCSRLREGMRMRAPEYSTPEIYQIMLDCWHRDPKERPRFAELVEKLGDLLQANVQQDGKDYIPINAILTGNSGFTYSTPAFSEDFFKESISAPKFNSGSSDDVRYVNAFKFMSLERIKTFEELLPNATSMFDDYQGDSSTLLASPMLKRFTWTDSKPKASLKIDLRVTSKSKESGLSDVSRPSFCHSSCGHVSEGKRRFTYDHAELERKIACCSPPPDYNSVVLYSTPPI
Another assay concerns the target T1, Flt-3 (Homo sapiens, UniProt P36888).
T1 sequence (P36888 27-993): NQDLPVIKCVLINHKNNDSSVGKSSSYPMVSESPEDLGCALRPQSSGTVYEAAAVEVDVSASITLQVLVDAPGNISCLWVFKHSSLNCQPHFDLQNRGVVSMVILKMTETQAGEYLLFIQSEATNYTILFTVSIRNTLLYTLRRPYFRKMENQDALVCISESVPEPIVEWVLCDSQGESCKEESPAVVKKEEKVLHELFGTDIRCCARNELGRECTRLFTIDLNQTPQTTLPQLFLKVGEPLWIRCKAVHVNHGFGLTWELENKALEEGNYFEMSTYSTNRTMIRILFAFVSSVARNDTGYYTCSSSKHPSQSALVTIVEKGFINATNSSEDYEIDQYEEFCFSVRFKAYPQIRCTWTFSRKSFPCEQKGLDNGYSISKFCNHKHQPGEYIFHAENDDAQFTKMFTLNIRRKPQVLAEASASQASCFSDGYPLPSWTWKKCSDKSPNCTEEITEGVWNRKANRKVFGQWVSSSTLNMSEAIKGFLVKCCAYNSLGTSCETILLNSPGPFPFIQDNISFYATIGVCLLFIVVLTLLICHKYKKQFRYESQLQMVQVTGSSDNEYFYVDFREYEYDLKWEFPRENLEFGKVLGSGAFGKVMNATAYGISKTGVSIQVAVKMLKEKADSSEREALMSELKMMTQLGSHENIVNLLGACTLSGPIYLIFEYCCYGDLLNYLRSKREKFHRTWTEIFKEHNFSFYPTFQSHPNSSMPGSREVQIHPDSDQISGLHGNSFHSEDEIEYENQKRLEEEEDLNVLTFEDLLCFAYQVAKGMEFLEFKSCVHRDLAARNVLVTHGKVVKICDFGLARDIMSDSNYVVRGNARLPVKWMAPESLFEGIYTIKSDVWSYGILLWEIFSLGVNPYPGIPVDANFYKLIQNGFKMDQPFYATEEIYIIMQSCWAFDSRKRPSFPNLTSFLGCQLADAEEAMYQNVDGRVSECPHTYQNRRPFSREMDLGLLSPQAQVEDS
As to the kind of experiment: Kinase inhibition at 10 μM, Flt-3. Conditions: 10 μM of Compound; read-out: Percentage Inhibition of Flt-3.

The target of another assay is c-Abl (Homo sapiens, UniProt P00519). As to the kind of experiment: Kinase inhibition at 10 μM, c-Abl. Conditions: 10 μM of Compound; read-out: Percentage Inhibition of c-Abl.
c-Abl, sequence (P00519 whole entry): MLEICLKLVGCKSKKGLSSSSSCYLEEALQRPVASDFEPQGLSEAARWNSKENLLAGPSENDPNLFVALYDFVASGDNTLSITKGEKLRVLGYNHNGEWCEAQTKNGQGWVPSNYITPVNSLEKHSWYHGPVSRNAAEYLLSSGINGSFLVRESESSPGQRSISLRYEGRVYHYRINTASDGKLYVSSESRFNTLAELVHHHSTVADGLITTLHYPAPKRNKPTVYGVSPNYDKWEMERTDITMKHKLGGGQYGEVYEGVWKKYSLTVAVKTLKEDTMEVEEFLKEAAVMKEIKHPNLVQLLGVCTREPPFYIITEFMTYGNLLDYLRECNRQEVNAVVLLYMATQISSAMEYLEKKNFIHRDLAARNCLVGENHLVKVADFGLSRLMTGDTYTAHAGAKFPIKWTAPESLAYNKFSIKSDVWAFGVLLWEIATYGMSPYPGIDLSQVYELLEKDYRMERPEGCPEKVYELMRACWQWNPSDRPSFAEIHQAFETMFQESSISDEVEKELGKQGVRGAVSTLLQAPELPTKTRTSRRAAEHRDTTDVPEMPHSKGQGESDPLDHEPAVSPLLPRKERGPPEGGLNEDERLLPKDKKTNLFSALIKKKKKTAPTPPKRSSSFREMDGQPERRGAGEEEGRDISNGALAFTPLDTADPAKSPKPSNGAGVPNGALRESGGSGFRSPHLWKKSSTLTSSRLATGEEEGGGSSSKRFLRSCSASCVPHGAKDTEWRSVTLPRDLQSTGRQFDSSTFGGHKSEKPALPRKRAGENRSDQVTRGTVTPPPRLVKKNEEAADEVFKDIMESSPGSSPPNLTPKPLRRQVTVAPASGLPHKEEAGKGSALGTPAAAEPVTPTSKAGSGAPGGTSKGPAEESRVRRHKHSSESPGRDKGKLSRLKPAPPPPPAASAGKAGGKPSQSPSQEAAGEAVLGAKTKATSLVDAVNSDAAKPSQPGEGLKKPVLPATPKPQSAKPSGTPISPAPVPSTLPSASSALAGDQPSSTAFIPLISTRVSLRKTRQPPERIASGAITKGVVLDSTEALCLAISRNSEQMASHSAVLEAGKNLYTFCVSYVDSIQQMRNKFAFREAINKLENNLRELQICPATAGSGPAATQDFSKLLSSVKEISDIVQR
In the next assay the target is IGF-1R (Homo sapiens, UniProt P08069). The assay is described as follows: Kinase inhibition at 10 μM, IGF-1R. Conditions: 10 μM of Compound; read-out: Percentage Inhibition of IGF-1R.
The target of another assay is PDGFR-β (Homo sapiens, UniProt P09619). As to the kind of experiment: Kinase inhibition at 10 μM, PDGFR-β. Conditions: 10 μM of Compound; read-out: Percentage Inhibition of PDGFR-β.

c-src, sequence (P12931 whole entry, species assumed): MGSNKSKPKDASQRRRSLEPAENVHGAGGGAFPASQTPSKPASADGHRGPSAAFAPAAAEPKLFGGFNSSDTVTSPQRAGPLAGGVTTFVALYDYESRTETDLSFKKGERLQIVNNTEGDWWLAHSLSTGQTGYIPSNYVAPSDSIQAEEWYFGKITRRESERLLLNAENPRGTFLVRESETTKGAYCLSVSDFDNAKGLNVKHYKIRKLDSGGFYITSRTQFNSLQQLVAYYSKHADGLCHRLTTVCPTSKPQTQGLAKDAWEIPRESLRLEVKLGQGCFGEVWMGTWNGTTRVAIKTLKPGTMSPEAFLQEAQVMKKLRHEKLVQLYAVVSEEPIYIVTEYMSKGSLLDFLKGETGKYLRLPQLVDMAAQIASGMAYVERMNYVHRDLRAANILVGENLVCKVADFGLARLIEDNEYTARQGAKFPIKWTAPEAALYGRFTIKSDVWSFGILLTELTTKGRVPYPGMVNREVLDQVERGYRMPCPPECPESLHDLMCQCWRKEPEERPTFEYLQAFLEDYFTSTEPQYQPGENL
CDK1, sequence (P06493 whole entry, species assumed): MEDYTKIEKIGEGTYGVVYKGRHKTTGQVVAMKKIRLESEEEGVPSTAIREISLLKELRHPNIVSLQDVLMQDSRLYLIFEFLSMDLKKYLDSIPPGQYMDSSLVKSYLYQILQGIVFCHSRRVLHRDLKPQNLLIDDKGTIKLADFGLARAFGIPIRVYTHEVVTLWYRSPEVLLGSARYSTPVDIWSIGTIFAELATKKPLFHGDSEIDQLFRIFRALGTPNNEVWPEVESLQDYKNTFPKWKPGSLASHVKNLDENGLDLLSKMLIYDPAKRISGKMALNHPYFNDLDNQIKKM
CDK1, sequence (P14635 whole entry partner, species assumed): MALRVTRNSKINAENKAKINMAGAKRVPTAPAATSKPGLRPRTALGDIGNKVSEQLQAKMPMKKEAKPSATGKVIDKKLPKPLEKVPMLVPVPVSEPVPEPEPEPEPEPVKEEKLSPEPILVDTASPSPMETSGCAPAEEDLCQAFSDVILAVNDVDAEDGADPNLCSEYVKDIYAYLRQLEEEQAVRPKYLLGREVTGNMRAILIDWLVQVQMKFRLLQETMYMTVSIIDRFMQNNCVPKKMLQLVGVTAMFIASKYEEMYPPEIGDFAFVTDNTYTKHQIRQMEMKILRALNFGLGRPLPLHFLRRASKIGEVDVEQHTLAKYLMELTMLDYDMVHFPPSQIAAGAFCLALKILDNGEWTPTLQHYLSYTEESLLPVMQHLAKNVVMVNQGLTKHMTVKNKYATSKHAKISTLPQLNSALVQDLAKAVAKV

Take `NC1=NC(=O)/C(=C2\CCNC(=O)c3[nH]c4ccc(F)cc4c32)N1` [Compound 12, 5-(2-amino-5-oxo-3,5-dihydro-imidazol-4-ylidene)-7-fluoro-3,4,5,10-tetrahydro-2H-azepino[3,4-b]indol-1-one]: the inhibition at 10 µM came to 89% at c-src; 89% at FGFR-1; 70% on KDR; 74% at c-Met; 99% at CDK1; 86% at c-Kit.

For the molecule `O=C1NCC/C(=N\Nc2ccccn2)c2c1[nH]c1ccc(Cl)cc21` [Compound 24, 7-chloro-5-(pyridin-2-yl-hydrazono)-3,4,5,10-tetrahydro-2H-azepino[3,4-b]indol-1-one], the inhibition at 10 µM on Tek came to 73%; on Flt-1 it was 85%; at Flt-3, 72%; on c-src, 92%; at c-Abl, 91%; at CDK1 it was 88%. For the same molecule, the inhibition at 10 µM was 79% at c-Kit and 82% at IGF-1R.

On to `NS(=O)(=O)c1ccc(N/N=C2\CCNC(=O)c3[nH]c4ccc(Cl)cc4c32)cc1` [Compound 31, 4-[N′-(7-chloro-1-oxo-1,3,4,10-tetrahydro-2H-azepino[3,4-b]indol-5-ylidene)-hydrazino]-benzenesulfonamide], for which the inhibition at 10 µM at CDK1 amounted to 95%.

As for `O=C1NCC/C(=N\Nc2cccnc2)c2c1[nH]c1ccc(Cl)cc21` [Compound 33, 7-chloro-5-(pyridin-3-yl-hydrazono)-3,4,5,10-tetrahydro-2H-azepino[3,4-b]indol-1-one], the inhibition at 10 µM at PDGFR-β was 97%; on Tek it was 70%; on c-src, 78%; at CDK1 it was 97%.

`O=C1NCC/C(=N\Nc2ccccn2)c2c1[nH]c1ccc(F)cc21` [Compound 37, 7-fluoro-5-(pyridin-2-yl-hydrazono)-3,4,5,10-tetrahydro-2H-azepino[3,4-b]indol-1-one]: the inhibition at 10 µM on Tek came to 81%; on Flt-1, 79%; at Flt-3, 75%; on c-src, 90%; at c-Abl, 86%; on CDK1 it was 98%. For the same molecule, at IGF-1R, the inhibition at 10 µM is 76%.
